# Assay results as given in publication PMC10561090, “Modulation of HIV-1 capsid multimerization by sennoside A and sennoside B via interaction with the NTD/CTD interface in capsid hexamer” (Frontiers in Microbiology, 2023).
# Values joined by “and” are separate entries in the source; they are usually repeats but may differ in a detail not shown here. Identical values can stand only once. Like-named read-outs stand apart in the source and are kept apart here. Where no end group is shown, it is not given here. The star is where a group is joined. Biotin = O=C1N[C@H]2[C@H](CS[C@H]2CCCCC(=O)*)N1
# Legend:
# [1] = biological target: T1, HIV-1 CA CTD/CAI interaction (Human immunodeficiency virus type 1 group M subtype B, UniProt P12493); test: biochemical; type: binding; conditions: for inhibition at 50 µM: read-out: IR (%), inhibitory rate; for IC50: 12-point two-fold dilution 50 to 0.024 μM, n = 3
# T1 construct: DNA encoding the CA CTD was cloned into BamHI-NotI sites of prokaryotic expression vector pGEX-4 T-1; made in house; host or cells: E. coli BL21(DE3)
# Method: The Discovery Probe FDA-approved Drug Library comprised 1,971 compounds, which were available as stock solutions at 10 mM concentrations in DMSO. Primary screening of these compounds was conducted using a previously established HTRF assay ([Zhang et al., 2019]). Briefly, compound (1 μL), CAI-biotin peptide (2 μL) and GST-CA CTD (2 μL) were dispensed into 384-well microplates. After 30 min incubation at room temperature, 5 μL premixed HTRF agents were added. After an additional 1 h incubation at room temperature, the HTRF signal was acquired by reading the plates in a PerkinElmer Envision Multilabel Plate Reader. Data were analyzed and visualized using GraphPad Prism (version 5.0). […] The quality of the assay was determined by calculating the Z’-factor using the following equation: Z’ = 1 - (3 × SDmax + 3 × SDmin) / |μmax - μmin|, where SDmax and SDmin represent the standard deviations of the positive and negative control measurements, respectively, and μmax and μmin represent the means of the respective positive and negative signal controls ([Zhang et al., 1999]).
# We screened a library of 1,971 small molecules, all of which were FDA-approved. Each compound was tested in duplicate at a concentration of 50 μM. […] The remaining compounds were further validated through dose–response analysis using the HTRF assay.
# Seven hit compounds were repurchased and subjected to a 12-point two-fold serial dilution, from 50 to 0.024 μM. […] This assay was conducted using three different concentrations of the compounds to determine their binding to monomeric CA.
# [2] = biological target: integrase; set-up: method as in Esposito et al., 2016; conditions: ref Esposito et al., 2016; cited from earlier work
# [3] = biological target: HIV-1 CA monomer (N183A) (Human immunodeficiency virus type 1 group M subtype B, UniProt P12493, N315A); test: biochemical; type: binding
# [4] = biological target: T2, HIV-1 CA (Human immunodeficiency virus type 1 group M subtype B, UniProt P12493); test: In vitro assembly of recombinant CA (absorbance at 350 nm); type: biochemical; conditions: 2.5 M NaCl, absorbance at 350 nm over time
# T2 construct: capsid proteins (CA) released by proteolytic processing of Gag; made in house
# Method: To monitor the in vitro assembly of HIV-1 CA in the presence and absence of hit compounds, changes in sample absorbance over time at 350 nm were measured, as previously described ([Lanman et al., 2002]; [Tang et al., 2003]; [Xu et al., 2018]). To initiate the assay, 1 μL of 5 mM SA or SB was added to 74 μL of buffer composed of a mixture of 5 M NaCl and 200 mM NaH2PO4 (pH 8.0) in a ratio of 2:1 by volume. Subsequently, 25 μL of CA (120 μM) was added to each well and DMSO served as a vehicle control. After a 2-min equilibration period, sample absorbance values were measured at 350 nm every 60 s for 39 min using a Perkin Elmer Envision microplate reader and were corrected by subtracting the absorbance values of a blank sample without sodium chloride. The resulting data were analyzed using GraphPad Prism 5.0.
# Under high ionic strength conditions, recombinant CA can spontaneously oligomerize and form open-ended helical tubes consisting of repeating CA hexamers. To investigate the impact of SA and SB on CA tube assembly, we monitored in vitro CA assembly in the presence and absence of SA and SB by measuring changes in light absorbance over time in 2.5 M NaCl. CA (25 μM) for CA. […] We used BLI to determine the KD values of SA and SB in the HIV-1 CA hexamer.
# Figure 4 Sennoside A and Sennoside B induced CA multimerization in vitro. (A–B) Light scattering (absorbance at 350 nm) responses showing the rate and extent of in vitro CA (20 μM) assembly in 2.5 M NaCl, in absence of compounds (mock) and the presence of Sennoside A and Sennoside B or CAI. Data are representative of three independent experiments. (C–D) Representative binding sensorgrams depicting the interaction of SA or SB with CA hexamer assessed by bio-layer interferometry (BLI) detection.
# [5] = biological target: HIV-1 CA monomer (L211A) (Human immunodeficiency virus type 1 group M subtype B, UniProt P12493, L343A); test: biochemical; type: binding
# [6] = biological target: HIV-1 CA monomer (L211A); test: biochemical; type: binding; conditions: CA L211A compared to WT CA
# [7] = biological target: T3, HIV-1 CA monomer (WT) (Human immunodeficiency virus type 1 group M subtype B, UniProt P12493); test: biochemical; type: binding; conditions: 7.5–30 μM compound, 1:1 model, mean ± SD
# T3 construct: capsid proteins (CA) released by proteolytic processing of Gag; made in house
# [8] = biological target: HIV-1 CA monomer (E187A) (Human immunodeficiency virus type 1 group M subtype B, UniProt P12493, E319A); test: biochemical; type: binding
# [9] = test system: HIV-1; set-up: method as in Esposito et al., 2016; conditions: cell-based assays, ref Esposito et al., 2016; read-out: EC50, anti-HIV-1 activity; cited from earlier work
# [10] = biological target: T4, CA hexamer/CPSF6 peptide interaction (Human immunodeficiency virus type 1 group M subtype B, UniProt P12493, A146C/E177C/M317A/W316A); type: binding, HIV-1
# T4 construct: capsid proteins (CA) released by proteolytic processing of Gag; made in house
# Method: As mentioned previously, this pocket is the binding site for two host cell proteins, CPSF6 and NUP153 ([Price et al., 2014]). […] We then performed a BLI-based competition assay. CA hexamer at a concentration of 5 μM, either alone or in combination with high concentrations of SA or SB or PF-74, were used to bind to the SA biosensor loaded with biotinylated CPSF6_313–327 or NUP153_1407–1423.
# Biotinylated hexameric CA was firstly loaded to streptavidin-coated biosensors. Then the biosensors were dipped into the plate wells containing CPSF6_308-327 or NUP153_1407–1423 in the absence or presence of PF74 or SA or SB. BLI signals were captured by Octet96 system and data were normalized according to the signal in the absence of compound. Comparisons between data were carried out using the paired t-test by GraphPad Prism 5.0. The double asterisk (^**) and three asterisks (^***) represent p < 0.01 and < 0.001 from the paired t test, respectively.
# [11] = biological target: RNase H; set-up: method as in Esposito et al., 2016; conditions: ref Esposito et al., 2016; cited from earlier work
# [12] = biological target: HIV-1 CA monomer (Y169A) (Human immunodeficiency virus type 1 group M subtype B, UniProt P12493, Y301A); test: biochemical; type: binding
# [13] = biological target: HIV-1 CA hexamer (Human immunodeficiency virus type 1 group M subtype B, UniProt P12493, A146C/E177C/M317A/W316A); test: BLI binding to CA hexamer
# [14] = test system: HIV-1; test: Anti-HIV-1 activity, virus-induced cytopathic effect in C8166 cells; type: cell-based; conditions: for IC50: Human immunodeficiency virus 1, M.O.I 0.03, 72 h, read-out: IC50 against HIV-1 induced CPE
# Method: (§1) Anti-HIV-1 activity was determined by an assay based on virus-induced cytopathic effects (CPE) ([Zhang et al., 2020]). Briefly, C8166 cells were infected with HIV-1 at a multiplicity of infection (M.O.I) of 0.03, with DMSO or diluted SA or SB in 96-well plates. […] The cytotoxicity of the compounds was determined by a tetrazolium dye (MTT) based assay. C8166 cells were co-incubated with diluted SA or SB in 96-well plates. After 3 days, cell viability was determined using MTT, and the 50% cytotoxicity concentration (CC50) was calculated. […] Tenofovir disoproxil fumarate (TDF) was used as a positive control.
# (§2) To further evaluate the antiviral effects of SA and SB, we tested them for protecting C8166 cells from HIV-1-induced CPE. The cytotoxic effect of these compounds on C8166 cells was also assessed.
# [15] = Cytotoxicity, MTT assay; type: cell-based; conditions: human, C8166 cells
# Method: as §1, §2
# [16] = biological target: HIV-1 reverse transcriptase-associated DNA Polymerase; set-up: method as in Esposito et al., 2016; conditions: ref Esposito et al., 2016; cited from earlier work
# [17] = test system: protease of zika virus; conditions: ref Coelho et al., 2022; cited from earlier work
# [18] = biological target: HIV-1 CA monomer (L211S) (Human immunodeficiency virus type 1 group M subtype B, UniProt P12493, L343S); test: biochemical; type: binding
# [19] = test system: SARS-CoV-2 main protease; conditions: cited from earlier work
# [20] = primary screening, compound at 50 μM, duplicate
# [21] = 5 μM CA hexamer, PF74 2.5 μM, SA 225 μM, SB 175 μM
compound,measurement,setting,value
O=C(O)CCCC[C@@H]1SC[C@@H]2NC(=O)N[C@@H]21 [Biotin],inhibition at 50 µM,[1],98.8%
CC[C@H](C)C[C@H](C)CCCCCCCCC(=O)N[C@H]1C[C@@H](O)[C@@H](NCCN)NC(=O)[C@@H]2[C@@H](O)CCN2C(=O)[C@H]([C@H](O)CCN)NC(=O)[C@H]([C@H](O)[C@@H](O)c2ccc(O)cc2)NC(=O)[C@@H]2C[C@@H](O)CN2C(=O)[C@H]([C@@H](C)O)NC1=O [Caspofungin],IC50,[1],29.5 µM
same,inhibition at 50 µM,[1]; [20],94.2%
CCCCCCCCCCCC1=C(O)C(=O)C=C(O)C1=O [Embelin],inhibition at 50 µM,[1]; [20],94.3%
"O=C(O)c1cc(O)c2c(c1)[C@H]([C@H]1c3cc(C(=O)O)cc(O)c3C(=O)c3c(O[C@@H]4O[C@H](CO)[C@@H](O)[C@H](O)[C@H]4O)cccc31)c1cccc(O[C@@H]3O[C@H](CO)[C@@H](O)[C@H](O)[C@H]3O)c1C2=O [Sennoside A, sennoside A]",IC50,[2],3.8 µM
same,Kd,[3],1.95 ± 0.06 µM
same,effect on in vitro CA assembly,[4],increased in vitro CA assembly in a dose-dependent manner
same,Kd,[5],3.17 ± 0.09 µM
same,KD fold change,[6],1.35
same,Kd,[7],2.34 µM
same,Kd,[8],7.69 ± 0.25 µM
same,EC50,[9],~9 µM
same,effect on CA hexamer/CPSF6 peptide interaction,[10]; [21],inhibited
same,IC50,[11],1.9 µM
same,Kd,[12],8.8 ± 0.29 µM
same,Kd,[13],1.75 µM and 2.25 µM
same,selectivity index (SI = CC50/EC50),[14],less than 10
same,IC50,[14],2.27 µM
same,CC50 at 3 days,[15],22.6 µM
same,IC50,[16],5.3 µM
same,IC50,[1],0.18 µM
same,inhibition at 50 µM,[1]; [20],94.7%
same,IC50,[17],0.66 µM
same,Kd,[18],7 ± 0.18 µM
"O=C(O)c1cc(O)c2c(c1)[C@@H]([C@H]1c3cc(C(=O)O)cc(O)c3C(=O)c3c(O[C@@H]4O[C@H](CO)[C@@H](O)[C@H](O)[C@H]4O)cccc31)c1cccc(O[C@@H]3O[C@H](CO)[C@@H](O)[C@H](O)[C@H]3O)c1C2=O [Sennoside B, sennoside B]",Kd,[3],3.96 ± 0.11 µM
same,effect on in vitro CA assembly,[4],increased in vitro CA assembly in a dose-dependent manner
same,Kd,[5],2.52 ± 0.07 µM
same,Kd,[7],1.62 µM
same,Kd,[8],6.77 ± 0.2 µM
same,IC50,[19],0.104 µM
same,effect on CA hexamer/CPSF6 peptide interaction,[10]; [21],inhibited
same,Kd,[12],2.8 ± 0.07 µM
same,Kd,[13],2.25 µM and 1.75 µM
same,selectivity index (SI = CC50/EC50),[14],less than 10
same,IC50,[14],4.73 µM
same,CC50 at 3 days,[15],33.4 µM
same,IC50,[1],0.08 µM
same,inhibition at 50 µM,[1]; [20],95.1%
same,Kd,[18],4.84 ± 0.12 µM
"CAI: dodecapeptide capsid assembly inhibitor identified by phage display, positive control (ITFEDLLDYYPGGGSK(Biotin))",effect on in vitro CA assembly,[4],inhibited CA assembly in vitro
PF-74,effect on CA hexamer/CPSF6 peptide interaction,[10],"inhibited, to a degree"
